Laboratory results: patent US20140228318A1, “Curcumin formulations and methods for making such formulations” (Sanford Research/USD, priority 2010, published 2014)

Tests used:
Assay type in all cases: cell-based
[1] = system: DU145 prostate cancer cells; experiment: Colony formation (clonogenic) assay; conditions: DU145, 2 μM, 10 day period
Method: (§1) Prostate cancer cells (1000) were seeded in 2 mL media in 6-well plates and allowed 2-3 days to attach and initiate the colony formations. […] The plates were then washed twice with PBS, fixed in chilled methanol, stained with hematoxylin (Fisher Scientific, Fair Lawn, N.J., USA), washed with water and air dried. The number of colonies was counted by a MultiImage™ Cabinet (Alpha Innotech Corporation, San Leandro, Calif., USA) using AlphaEase Fc software. The percent of colonies was calculated using the number of colonies formed in treatment divided by number of colonies formed in DMSO or CD in PBS controls.

[2] = system: C4-2 prostate cancer cells; experiment: Colony formation (clonogenic) assay; conditions: C4-2, 2 μM, 10 day period
Method: as §1

[3] = system: DU145 prostate cancer cells; experiment: In vitro cytotoxicity / cell proliferation (MTS assay); conditions: Homo sapiens, DU-145, 48 h, DU145, 2 days, read-out: IC50 (concentration of drug required to kill 50% of cells)
Method: (§2) To examine the anti-cancer activity of the CD-CUR inclusion complex (CD-30), cell proliferation assays were performed using C4-2 and DU145 prostate cancer cell lines. Prostate cancer cells (5000 cells/well in 100 μL media) were seeded in 96-well plates and allowed to attach overnight. […] Media containing equivalent amounts of CD in PBS or DMSO was used as the control. […] The reagent (25 μL/well) was added to each well and plates were incubated for 3 hrs at 37° C. The color intensity was measured at 492 nm using a microplate reader (BioMate 3 UV-Vis spectrophotometer, Thermo Electron Corporation, Hudson, N.H.). […] Just before adding MTS reagents, representative phase contrast microscope images of cells were taken using an Olympus BX 41 microscope (Olympus, Center Valley, Pa., USA).

[4] = system: C4-2 prostate cancer cells; experiment: as above; conditions: 48 h, C4-2, 2 days, read-out: IC50 (concentration of drug required to kill 50% of cells)
Method: as §2

## COc1cc(/C=C/C(=O)CC(=O)/C=C/c2ccc(O)c(OC)c2)ccc1O [CUR, bis(4-hydroxy-3-methoxyphenyl)-1,6-diene-3,5-dione]
[1]
  colonies, percent of DMSO or CD control: 74%
[2]
  colonies, percent of DMSO or CD control: 96%
[3]
  IC50: 18.4 µM
[4]
  IC50: 19.6 µM
